# Experiments:
# [1] = test system: T47D; assay: Growth inhibition of human T47D cells incubated for 48 hrs by sulforhodamine B assay; format: functional, cell-based
# [2] = test system: MCF7; assay: Growth inhibition of human MCF7 cells assessed as cell growth at 10 uM incubated for 48 hrs by sulforhodamine B assay relative to control; format: functional; conditions: MCF7, 48 h, read-out: Activity
# [3] = test system: DU-145; assay: Growth inhibition of human DU145 cells assessed as cell growth at 10 uM incubated for 48 hrs by sulforhodamine B assay relative to control; format: functional; conditions: DU-145, 48 h, read-out: Activity
# [4] = test system: 786-0; assay: Growth inhibition of human 786-0 cells assessed as cell growth at 10 uM incubated for 48 hrs by sulforhodamine B assay relative to control; format: functional; conditions: 786-0, 48 h, read-out: Activity
# [5] = test system: SK-MEL-5; assay: Growth inhibition of human SK-MEL-5 cells assessed as cell growth at 10 uM incubated for 48 hrs by sulforhodamine B assay relative to control; format: functional; conditions: SK-MEL-5, 48 h, read-out: Activity
# [6] = test system: HCT-116; assay: Growth inhibition of human HCT116 cells assessed as cell growth at 0.01 uM incubated for 48 hrs by sulforhodamine B assay relative to control; format: functional; conditions: HCT-116, 48 h, read-out: Activity
# [7] = test system: UACC-62; assay: Growth inhibition of human UACC62 cells assessed as cell growth at 0.01 uM incubated for 48 hrs by sulforhodamine B assay relative to control; format: functional; conditions: UACC-62, 48 h, read-out: Activity
# [8] = test system: A549; assay: Growth inhibition of human A549/ATCC cells assessed as cell growth at 10 uM incubated for 48 hrs by sulforhodamine B assay relative to control; format: functional; conditions: A549, 48 h, read-out: Activity
# [9] = test system: A498; assay: Growth inhibition of human A498 cells assessed as cell growth at 10 uM incubated for 48 hrs by sulforhodamine B assay relative to control; format: functional; conditions: A498, 48 h, read-out: Activity
# [10] = test system: CCRF-CEM; assay: Growth inhibition of human CCRF-CEM cells assessed as cell growth at 10 uM incubated for 48 hrs by sulforhodamine B assay relative to control; format: functional; conditions: read-out: Activity
# [11] = test system: NCI-H23; assay: Growth inhibition of human NCI-H23 cells assessed as cell growth at 10 uM incubated for 48 hrs by sulforhodamine B assay relative to control; format: functional; conditions: NCI-H23, 48 h, read-out: Activity
# [12] = test system: Malme-3M; assay: Growth inhibition of human MALME-3M cells assessed as cell growth at 10 uM incubated for 48 hrs by sulforhodamine B assay relative to control; format: functional; conditions: read-out: Activity
# [13] = test system: SR; assay: Growth inhibition of human SR cells incubated for 48 hrs by sulforhodamine B assay; format: functional, cell-based
# [14] = test system: SF-268; assay: Growth inhibition of human SF268 cells assessed as cell growth at 0.1 uM incubated for 48 hrs by sulforhodamine B assay relative to control; format: functional; conditions: SF-268, 48 h, read-out: Activity
# [15] = test system: NCI-H322M; assay: Growth inhibition of human NCI-H322M cells assessed as cell growth at 10 uM incubated for 48 hrs by sulforhodamine B assay relative to control; format: functional; conditions: read-out: Activity
# [16] = test system: SNB-75; assay: Growth inhibition of human SNB75 cells assessed as cell growth at 0.1 uM incubated for 48 hrs by sulforhodamine B assay relative to control; format: functional; conditions: SNB-75, 48 h, read-out: Activity
# [17] = test system: SN12C; assay: Growth inhibition of human SN12C cells assessed as cell growth at 10 uM incubated for 48 hrs by sulforhodamine B assay relative to control; format: functional; conditions: read-out: Activity
# [18] = test system: Hs-578T; assay: Growth inhibition of human Hs578T cells assessed as cell growth at 0.1 uM incubated for 48 hrs by sulforhodamine B assay relative to control; format: functional; conditions: read-out: Activity
# [19] = test system: HCT-116; assay: Growth inhibition of human HCT116 cells assessed as cell growth at 0.1 uM incubated for 48 hrs by sulforhodamine B assay relative to control; format: functional; conditions: HCT-116, 48 h, read-out: Activity
# [20] = test system: HOP-62; assay: Growth inhibition of human HOP62 cells assessed as cell growth at 10 uM incubated for 48 hrs by sulforhodamine B assay relative to control; format: functional; conditions: HOP-62, 48 h, read-out: Activity
# [21] = test system: NCI/ADR-RES; assay: Growth inhibition of human NCI/ADR-RES cells assessed as cell growth at 10 uM incubated for 48 hrs by sulforhodamine B assay relative to control; format: functional; conditions: read-out: Activity
# [22] = test system: PC-3; assay: Growth inhibition of human PC3 cells assessed as cell growth at 10 uM incubated for 48 hrs by sulforhodamine B assay relative to control; format: functional; conditions: PC-3, 48 h, read-out: Activity
# [23] = test system: NCI-H522; assay: Growth inhibition of human NCI-H522 cells incubated for 48 hrs by sulforhodamine B assay; format: functional, cell-based; conditions: NCI-H522, 48 h
# [24] = test system: HCT-15; assay: Growth inhibition of human HCT15 cells assessed as cell growth at 10 uM incubated for 48 hrs by sulforhodamine B assay relative to control; format: functional; conditions: HCT-15, 48 h, read-out: Activity
# [25] = test system: MDA-MB-435; assay: Growth inhibition of human MDA-MB-435 cells assessed as cell growth at 100 uM incubated for 48 hrs by sulforhodamine B assay relative to control; format: functional; conditions: MDA-MB-435, 48 h, read-out: Activity
# [26] = test system: UACC-257; assay: Growth inhibition of human UACC257 cells assessed as cell growth at 10 uM incubated for 48 hrs by sulforhodamine B assay relative to control; format: functional; conditions: UACC-257, 48 h, read-out: Activity
# [27] = test system: SK-MEL-28; assay: Growth inhibition of human SK-MEL-28 cells assessed as cell growth at 10 uM incubated for 48 hrs by sulforhodamine B assay relative to control; format: functional; conditions: SK-MEL-28, 48 h, read-out: Activity
# [28] = test system: COLO 205; assay: Growth inhibition of human COLO205 cells assessed as cell growth at 10 uM incubated for 48 hrs by sulforhodamine B assay relative to control; format: functional; conditions: COLO 205, 48 h, read-out: Activity
# [29] = test system: MOLT-4; assay: Growth inhibition of human MOLT4 cells assessed as cell growth at 10 uM incubated for 48 hrs by sulforhodamine B assay relative to control; format: functional; conditions: MOLT-4, 48 h, read-out: Activity
# [30] = test system: UO-31; assay: Growth inhibition of human UO31 cells assessed as cell growth at 0.01 uM incubated for 48 hrs by sulforhodamine B assay relative to control; format: functional; conditions: UO-31, 48 h, read-out: Activity
# [31] = test system: UO-31; assay: Growth inhibition of human UO31 cells assessed as cell growth at 10 uM incubated for 48 hrs by sulforhodamine B assay relative to control; format: functional; conditions: UO-31, 48 h, read-out: Activity
# [32] = test system: OVCAR-8; assay: Growth inhibition of human OVCAR8 cells assessed as cell growth at 10 uM incubated for 48 hrs by sulforhodamine B assay relative to control; format: functional; conditions: OVCAR-8, 48 h, read-out: Activity
# [33] = read-out: LC50 (the source's name)
# [34] = read-out: pLC50 (the source's name) (converted)
compound,measurement,setting,value
COc1cc(Cl)cc(-c2nn(-c3cccc(NC(=O)c4ccc(N5CCOCC5)c(C(F)(F)F)c4)c3)cc2-c2ccncc2)c1,GI50,[1]; read-out: GI50,1.04 µM
same,CC50,[1]; [33],> 100 µM
same,TGI,[1]; read-out: TGI,> 100 µM
same,GI50,[1]; read-out: pGI50 (converted),10.5 µM
same,CC50,[1]; [34],> 100 µM
same,TGI,[1]; read-out: pTGI (converted),> 100 µM
same,growth at 10 µM,[2],45.3%
same,growth at 10 µM,[3],93.3%
same,growth at 10 µM,[4],43.1%
same,growth at 10 µM,[5],71.5%
same,growth at 0.01 µM,[6],97%
same,growth at 0.01 µM,[7],95%
same,growth at 10 µM,[8],45.5%
same,growth at 10 µM,[9],31.4%
same,growth at 10 µM,[10],31.7%
same,growth at 10 µM,[11],79%
same,growth at 10 µM,[12],57.9%
same,GI50,[13]; read-out: GI50,3.06 µM
same,CC50,[13]; [33],> 100 µM
same,TGI,[13]; read-out: TGI,> 100 µM
same,GI50,[13]; read-out: pGI50 (converted),3.09 µM
same,CC50,[13]; [34],> 100 µM
same,TGI,[13]; read-out: pTGI (converted),> 100 µM
same,growth at 0.1 µM,[14],94%
same,growth at 10 µM,[15],89.6%
same,growth at 0.1 µM,[16],54%
same,growth at 10 µM,[17],79.8%
same,growth at 0.1 µM,[18],92%
same,growth at 0.1 µM,[19],97%
same,growth at 10 µM,[20],52.1%
same,growth at 10 µM,[21],46.1%
same,growth at 10 µM,[22],29.1%
same,GI50,[23]; read-out: GI50,4.72 µM
same,CC50,[23]; [33],> 100 µM
same,TGI,[23]; read-out: TGI,> 100 µM
same,GI50,[23]; read-out: pGI50 (converted),4.68 µM
same,CC50,[23]; [34],> 100 µM
same,TGI,[23]; read-out: pTGI (converted),> 100 µM
same,growth at 10 µM,[24],17.2%
same,growth at 100 µM,[25],42%
same,growth at 10 µM,[26],63.5%
same,growth at 10 µM,[27],53.2%
same,growth at 10 µM,[28],52.7%
same,growth at 10 µM,[29],38.3%
same,growth at 0.01 µM,[30],92%
same,growth at 10 µM,[31],40.7%
same,growth at 10 µM,[32],42.1%
